# In paper PMC3108484 (Frontiers in Pharmacology, 2011):
# What was measured:
# [1] = molecular target: Rat α7 nAChR (α-BGTX-sensitive) (Rattus norvegicus, UniProt Q05941); assay: biochemical; format: binding
# [2] = molecular target: Human Y1 (Homo sapiens, UniProt P25929); assay: Radioligand binding: Human Y1
# [3] = molecular target: Human Y2 (Homo sapiens, UniProt P49146); assay: Radioligand binding: Human Y2
# [4] = molecular target: Human NK1 (Homo sapiens, UniProt P25103); assay: Radioligand binding: Human NK1
# [5] = molecular target: Human D4.4 (Homo sapiens, UniProt P21917); assay: Radioligand binding: Human D4.4
# [6] = molecular target: Human 5-HT5a (Homo sapiens, UniProt P47898); assay: Radioligand binding: Human 5-HT5a
# [7] = molecular target: Bovine 5-HT1D (Bos taurus, UniProt F1MMU1); assay: Radioligand binding: Bovine 5-HT1D
# [8] = molecular target: Guinea pig H2 (Cavia porcellus, UniProt P47747); assay: Radioligand binding: Guinea pig H2
# [9] = molecular target: Human motilin (Homo sapiens, UniProt O43193); assay: Radioligand binding: Human motilin
# [10] = molecular target: K+ATP channel (Rattus norvegicus, UniProt Q09429); assay: Radioligand binding: K+ATP channel; details: read-out: % Inhibition of specific binding (1 μM)
# [11] = molecular target: Rat PACAP (PAC1) (Rattus norvegicus, UniProt P32215); assay: Radioligand binding: Rat PACAP
# [12] = molecular target: Human CCK1 (CCKA) (Homo sapiens, UniProt P32238); assay: Radioligand binding: Human CCK1
# [13] = molecular target: Rat σ (non-selective); assay: Radioligand binding: Rat σ; details: [3H]-DTG 8 nM
# [14] = molecular target: Human norepinephrine transporter (Homo sapiens, UniProt P23975); assay: Radioligand binding: Human norepinephrine transporter
# [15] = molecular target: Rat Ca2+ channel (L, verapamil site); assay: Radioligand binding: Rat Ca2+ channel; details: [3H]-(−)D 888 0.5 nM
# [16] = read-out: % Inhibition of specific binding (1 μM)
# Chain of Guinea pig H2 (P47747 whole entry): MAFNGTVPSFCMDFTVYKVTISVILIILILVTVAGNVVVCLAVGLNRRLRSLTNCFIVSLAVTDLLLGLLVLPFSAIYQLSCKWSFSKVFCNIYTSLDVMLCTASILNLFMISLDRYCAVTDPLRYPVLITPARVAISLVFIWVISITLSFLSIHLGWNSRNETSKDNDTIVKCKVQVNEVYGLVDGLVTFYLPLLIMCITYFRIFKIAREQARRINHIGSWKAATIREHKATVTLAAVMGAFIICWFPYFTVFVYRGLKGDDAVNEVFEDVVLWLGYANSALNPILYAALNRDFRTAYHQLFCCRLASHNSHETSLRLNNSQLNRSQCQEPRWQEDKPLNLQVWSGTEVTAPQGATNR
# Chain of Rat PACAP (PAC1) (P32215 20-523): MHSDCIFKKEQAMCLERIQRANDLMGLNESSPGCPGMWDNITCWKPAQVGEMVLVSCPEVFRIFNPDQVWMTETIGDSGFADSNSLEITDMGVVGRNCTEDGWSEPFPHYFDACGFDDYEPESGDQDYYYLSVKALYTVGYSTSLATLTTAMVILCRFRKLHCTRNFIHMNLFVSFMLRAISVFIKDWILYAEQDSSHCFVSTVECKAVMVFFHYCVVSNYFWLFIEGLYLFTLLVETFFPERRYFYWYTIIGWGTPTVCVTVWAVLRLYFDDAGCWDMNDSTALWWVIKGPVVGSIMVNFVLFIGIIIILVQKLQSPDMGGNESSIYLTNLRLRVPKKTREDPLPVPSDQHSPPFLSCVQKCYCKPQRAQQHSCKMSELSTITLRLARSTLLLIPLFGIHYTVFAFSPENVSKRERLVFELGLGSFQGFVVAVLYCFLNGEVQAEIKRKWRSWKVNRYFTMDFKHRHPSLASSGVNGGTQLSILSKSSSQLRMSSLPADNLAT
# Chain of Human Y2 (P49146 whole entry): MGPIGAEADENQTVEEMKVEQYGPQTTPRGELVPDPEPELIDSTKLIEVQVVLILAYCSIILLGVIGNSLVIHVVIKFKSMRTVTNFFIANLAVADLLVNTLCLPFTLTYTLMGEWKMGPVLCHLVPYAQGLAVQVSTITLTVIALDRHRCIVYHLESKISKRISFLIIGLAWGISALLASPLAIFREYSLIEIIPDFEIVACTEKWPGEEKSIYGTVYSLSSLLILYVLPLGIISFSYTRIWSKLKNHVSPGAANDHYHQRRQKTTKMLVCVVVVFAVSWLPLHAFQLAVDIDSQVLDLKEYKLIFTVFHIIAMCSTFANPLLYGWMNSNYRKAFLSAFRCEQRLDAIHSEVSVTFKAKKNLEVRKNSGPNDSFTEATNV
# Chain of Human NK1 (P25103 whole entry): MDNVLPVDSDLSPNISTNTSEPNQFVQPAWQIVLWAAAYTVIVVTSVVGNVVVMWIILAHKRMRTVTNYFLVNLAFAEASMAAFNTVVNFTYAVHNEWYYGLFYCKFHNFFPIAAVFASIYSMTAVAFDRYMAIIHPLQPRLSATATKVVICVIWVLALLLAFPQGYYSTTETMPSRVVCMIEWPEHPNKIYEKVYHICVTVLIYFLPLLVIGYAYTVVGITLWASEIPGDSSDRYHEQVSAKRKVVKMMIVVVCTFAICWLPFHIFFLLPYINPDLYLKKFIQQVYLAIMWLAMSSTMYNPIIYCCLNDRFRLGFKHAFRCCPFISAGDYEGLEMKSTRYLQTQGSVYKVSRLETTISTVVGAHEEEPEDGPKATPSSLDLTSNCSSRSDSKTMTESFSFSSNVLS
# Chain of Human D4.4 (P21917 whole entry): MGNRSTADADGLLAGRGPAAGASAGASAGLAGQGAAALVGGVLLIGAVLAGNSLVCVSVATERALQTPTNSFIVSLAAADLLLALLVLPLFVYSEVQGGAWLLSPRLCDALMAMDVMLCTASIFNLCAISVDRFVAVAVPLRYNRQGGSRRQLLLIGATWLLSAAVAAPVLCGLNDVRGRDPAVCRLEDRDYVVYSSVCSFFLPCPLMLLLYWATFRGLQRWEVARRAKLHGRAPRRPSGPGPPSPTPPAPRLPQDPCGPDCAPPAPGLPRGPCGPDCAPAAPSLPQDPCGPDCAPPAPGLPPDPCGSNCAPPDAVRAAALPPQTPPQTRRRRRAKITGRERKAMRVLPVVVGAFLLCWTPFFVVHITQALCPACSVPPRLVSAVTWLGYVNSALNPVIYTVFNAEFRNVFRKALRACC
# Chain of Rat α7 nAChR (α-BGTX-sensitive) (Q05941 23-502): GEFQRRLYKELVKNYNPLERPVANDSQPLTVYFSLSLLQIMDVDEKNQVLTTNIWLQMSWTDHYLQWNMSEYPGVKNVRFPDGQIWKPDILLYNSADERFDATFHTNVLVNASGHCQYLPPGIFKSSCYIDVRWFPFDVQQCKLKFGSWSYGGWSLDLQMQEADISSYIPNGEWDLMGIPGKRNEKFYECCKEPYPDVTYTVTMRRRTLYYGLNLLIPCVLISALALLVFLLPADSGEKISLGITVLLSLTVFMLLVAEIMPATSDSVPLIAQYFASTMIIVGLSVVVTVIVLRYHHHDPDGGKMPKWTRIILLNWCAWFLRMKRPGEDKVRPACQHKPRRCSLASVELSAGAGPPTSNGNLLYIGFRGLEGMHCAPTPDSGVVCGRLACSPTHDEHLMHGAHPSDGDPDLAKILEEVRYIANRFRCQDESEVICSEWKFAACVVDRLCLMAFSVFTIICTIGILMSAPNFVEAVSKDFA
# Chain of Human norepinephrine transporter (P23975 whole entry): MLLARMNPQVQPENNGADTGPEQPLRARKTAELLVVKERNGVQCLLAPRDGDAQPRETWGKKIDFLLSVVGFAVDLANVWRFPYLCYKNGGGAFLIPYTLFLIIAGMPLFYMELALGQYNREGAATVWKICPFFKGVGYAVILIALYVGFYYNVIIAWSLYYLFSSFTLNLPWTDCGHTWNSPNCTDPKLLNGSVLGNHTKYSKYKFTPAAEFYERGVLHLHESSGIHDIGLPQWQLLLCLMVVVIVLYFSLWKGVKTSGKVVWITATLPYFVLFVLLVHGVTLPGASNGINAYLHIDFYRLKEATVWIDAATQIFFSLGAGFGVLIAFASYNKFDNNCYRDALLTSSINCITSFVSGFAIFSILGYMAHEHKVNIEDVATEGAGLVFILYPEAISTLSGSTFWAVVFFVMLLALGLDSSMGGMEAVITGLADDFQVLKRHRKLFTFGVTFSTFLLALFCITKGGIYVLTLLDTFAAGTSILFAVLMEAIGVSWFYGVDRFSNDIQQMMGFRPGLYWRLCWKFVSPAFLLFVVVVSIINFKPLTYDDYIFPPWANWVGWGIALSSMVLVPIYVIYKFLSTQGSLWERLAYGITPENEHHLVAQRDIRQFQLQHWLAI
# Chain of Human motilin (O43193 whole entry): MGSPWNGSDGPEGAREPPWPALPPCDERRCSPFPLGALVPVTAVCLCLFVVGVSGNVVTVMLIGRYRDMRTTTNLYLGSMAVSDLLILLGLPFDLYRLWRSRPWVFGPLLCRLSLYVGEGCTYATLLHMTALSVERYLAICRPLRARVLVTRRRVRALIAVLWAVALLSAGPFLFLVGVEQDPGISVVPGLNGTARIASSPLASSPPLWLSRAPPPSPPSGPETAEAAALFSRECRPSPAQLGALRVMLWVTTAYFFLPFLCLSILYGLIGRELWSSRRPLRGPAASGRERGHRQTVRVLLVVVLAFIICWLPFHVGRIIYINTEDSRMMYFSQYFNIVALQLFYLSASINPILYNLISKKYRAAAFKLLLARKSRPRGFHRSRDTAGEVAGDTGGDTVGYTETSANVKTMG
# Chain of Bovine 5-HT1D (F1MMU1 1-377): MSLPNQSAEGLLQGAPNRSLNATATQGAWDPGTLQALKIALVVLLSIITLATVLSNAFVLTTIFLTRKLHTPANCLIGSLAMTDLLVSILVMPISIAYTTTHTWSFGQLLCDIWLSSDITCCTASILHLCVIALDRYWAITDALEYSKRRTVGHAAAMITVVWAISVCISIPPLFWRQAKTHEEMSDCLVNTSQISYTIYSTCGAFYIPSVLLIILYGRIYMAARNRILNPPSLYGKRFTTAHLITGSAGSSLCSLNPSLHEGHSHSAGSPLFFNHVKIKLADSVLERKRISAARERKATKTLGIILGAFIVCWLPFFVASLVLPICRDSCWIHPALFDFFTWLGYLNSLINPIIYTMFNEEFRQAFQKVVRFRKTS
# Chain of Human CCK1 (CCKA) (P32238 whole entry): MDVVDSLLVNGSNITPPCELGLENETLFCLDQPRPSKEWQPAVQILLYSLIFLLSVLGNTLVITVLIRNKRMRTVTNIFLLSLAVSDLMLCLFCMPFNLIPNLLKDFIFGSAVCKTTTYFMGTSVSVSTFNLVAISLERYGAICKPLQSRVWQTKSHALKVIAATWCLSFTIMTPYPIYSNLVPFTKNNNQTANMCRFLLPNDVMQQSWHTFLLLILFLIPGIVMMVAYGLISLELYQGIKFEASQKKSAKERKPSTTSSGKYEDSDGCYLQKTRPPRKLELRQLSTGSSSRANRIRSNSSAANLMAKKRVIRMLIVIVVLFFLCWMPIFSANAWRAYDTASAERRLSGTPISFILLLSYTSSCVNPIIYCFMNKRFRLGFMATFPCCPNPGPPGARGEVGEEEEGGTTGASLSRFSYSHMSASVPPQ
# Chain of Human Y1 (P25929 whole entry): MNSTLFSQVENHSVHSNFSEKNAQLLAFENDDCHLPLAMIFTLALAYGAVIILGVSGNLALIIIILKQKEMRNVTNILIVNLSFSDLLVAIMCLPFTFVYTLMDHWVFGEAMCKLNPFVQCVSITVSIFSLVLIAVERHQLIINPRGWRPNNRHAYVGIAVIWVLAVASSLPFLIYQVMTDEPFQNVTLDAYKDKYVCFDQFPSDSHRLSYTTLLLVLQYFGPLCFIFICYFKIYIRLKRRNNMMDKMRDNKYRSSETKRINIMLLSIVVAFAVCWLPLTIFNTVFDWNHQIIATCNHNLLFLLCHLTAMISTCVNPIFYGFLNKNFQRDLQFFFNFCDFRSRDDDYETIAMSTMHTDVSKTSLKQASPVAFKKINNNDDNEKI
compound,measurement,setting,value
"COC(=O)N1CCC(CN2CCC(CNC(=O)c3cccc4[nH]c(C(C)C)nc34)CC2)CC1 [TD-8954, 4-(4-{[(2-isopropyl-1H-benzoimidazole-4-carbonyl)amino]methyl}-piperidin-1-ylmethyl)piperidine-1-carboxylic acid methyl ester]",Ki,[1],> 1 µM
same,inhibition at 1 µM,[1]; [16],3%
same,Ki,[2],> 1 µM
same,Ki,[3],> 1 µM
same,inhibition at 1 µM,[3]; [16],-5%
same,Ki,[4],> 1 µM
same,inhibition at 1 µM,[4]; [16],-2%
same,Ki,[5],> 1 µM
same,inhibition at 1 µM,[5]; [16],6%
same,Ki,[6],> 1 µM
same,Ki,[7],> 1 µM
same,Ki,[8],> 1 µM
same,inhibition at 1 µM,[8]; [16],4%
same,Ki,[9],> 1 µM
same,inhibition at 1 µM,[10],5%
same,Ki,[11],> 1 µM
same,inhibition at 1 µM,[11]; [16],-3%
same,Ki,[12],> 1 µM
same,pKi,[13],<6
same,Ki,[14],> 1 µM
same,inhibition at 1 µM,[14]; [16],6%
same,pKi,[15],<6
